IC50 data for 27 compounds are collected here from patent US9777020B2, “Furo-3-carboxamide derivatives and methods of use” (AbbVie Inc., priority 2014, dated 2017).

Sequence of TrkA (P04629 33-796): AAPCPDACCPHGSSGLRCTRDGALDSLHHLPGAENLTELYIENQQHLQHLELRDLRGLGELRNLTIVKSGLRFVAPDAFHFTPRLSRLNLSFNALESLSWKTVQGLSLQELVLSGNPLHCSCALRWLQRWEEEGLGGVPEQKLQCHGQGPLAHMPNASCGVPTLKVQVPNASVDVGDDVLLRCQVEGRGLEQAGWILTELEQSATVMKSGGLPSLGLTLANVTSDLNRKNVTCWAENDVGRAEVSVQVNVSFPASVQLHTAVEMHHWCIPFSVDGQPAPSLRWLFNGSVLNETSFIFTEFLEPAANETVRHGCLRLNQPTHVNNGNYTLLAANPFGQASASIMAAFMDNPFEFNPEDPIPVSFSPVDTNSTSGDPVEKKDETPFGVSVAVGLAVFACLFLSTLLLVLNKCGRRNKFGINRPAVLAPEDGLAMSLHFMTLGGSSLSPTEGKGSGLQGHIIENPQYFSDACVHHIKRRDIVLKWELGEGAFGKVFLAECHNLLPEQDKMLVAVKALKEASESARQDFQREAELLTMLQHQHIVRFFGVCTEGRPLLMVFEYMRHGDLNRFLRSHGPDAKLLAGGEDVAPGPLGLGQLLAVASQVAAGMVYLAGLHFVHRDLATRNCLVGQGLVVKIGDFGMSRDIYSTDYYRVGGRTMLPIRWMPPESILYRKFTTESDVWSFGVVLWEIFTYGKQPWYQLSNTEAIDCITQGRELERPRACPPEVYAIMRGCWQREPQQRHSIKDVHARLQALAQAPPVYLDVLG

The test concerns the target TrkA (Homo sapiens (Human), UniProt P04629). In words: TrkA kinase HTRF enzyme inhibition assay. Type of test: biochemical. Conditions: TrkA pre-incubated with 200 μM ATP. As for the experimental part:
TrkA enzyme was obtained from Invitrogen (as catalog numbers PV3144, PV3616, and PV3617, respectively). Enzyme activity was measured in an HTRF® (homogeneous time resolved fluorescence) assay, which detects enzymatic phosphorylation of a biotinylated synthetic peptide substrate (an LCK peptide analog, biotin-ahx-[…], from Genemed Synthesis). Phosphorylation is assessed by HTRF® in the presence of an anti-phosphotyrosine antibody conjugated to Eu^3+ cryptate (Cisbio) as donor fluorophore, and streptavidin conjugated to allophycocyanin (ProZyme) as acceptor fluorophore. The HTRF® signal was detected at two different wavelengths (620 nm and 665 nm) which were used to calculate the fluorescence ratio.
TrkA enzyme was titrated to a concentration optimized to ensure accurate measurement of the initial reaction rate. To allow the TrkA enzyme to undergo activation and auto-phosphorylation, a 20 minute pre-incubation with ATP was carried out (at twice the final targeted enzyme and ATP concentration) prior to addition of test compound and the peptide substrate.
TrkA in vitro assays were performed by pre-incubating TrkA (2-10 nM) with ATP (200 μM) for 20 minutes at ambient temperature in 50 mM HEPES pH 7.4, 10 mM MgCl2, 2 mM MnCl2, 100 μM Na3VO4, 1 mM dithiothreitol, 0.01% BSA (bovine serum albumin). Then, to the activated Trk enzyme mixture was added the test compound in 2% dimethyl sulfoxide. After 10 minutes, the peptide substrate (125 nM) was added. After 1 hour, enzyme reactions were terminated by addition of equal reaction volumes of detection/stop reagent (containing 0.2 μg/mL anti-phosphotyrosine monoclonal antibody labeled with europium from Cisbio (catalog#PT66-K), and 4 μg/mL PhycoLink® Streptavidin-Allophycocyanin conjugate from ProZyme (catalog#PJ25S) in 60 mM EDTA in 40 mM HEPES pH 7.4, 480 mM KF, 0.01% Tween® 20 and 0.1% BSA bovine serum albumin) Reaction plates were stored at 4° C. overnight before reading the fluorescence ratio signal on a PerkinElmer EnVision™ fluorescence detector. Individual reaction wells were stopped at time points to obtain reaction rates. The test inhibitor compounds were assayed in duplicate, at half-log serial dilutions over a range of concentrations (e.g. starting at 50 μM or 5 μM as the high compound concentration). The percent Trk enzyme inhibition was calculated from the initial rates of the inhibited reactions relative to the uninhibited control. IC50 values were calculated by fitting the inhibition percent to the concentration of inhibitor [I] in the assay in equation 1 below, to solve for the IC50. Inhibition %=100[I]/([I]+[IC50]) equation 1
A general note: Time-resolved FRET reads energy transfer from a long-lived donor to a nearby acceptor.
With `CC(C)Oc1nc(N2C[C@@H]3CCN(CCO)[C@@H]3C2)ccc1NC(=O)c1coc2c1C(=O)NC(C)(C)C2` [Example 131, N-{6-[(3aS,6aS)-1-(2-hydroxyethyl)hexahydropyrrolo[3,4-b]pyrrol-5(1H)-yl]-2-isopropoxypyridin-3-yl}-6,6-dimethyl-4-oxo-4,5,6,7-tetrahydrofuro[3,2-c]pyridine-3-carboxamide], the IC50 – broadly, the concentration needed to halve the response being measured – was found to be 98.1 nM.
The same measure for `COCCOc1ccc(NC(=O)c2coc3c2C(=O)NC(C)(C)C3)c(OCCOC)n1` [Example 141, N-[2,6-bis(2-methoxyethoxy)pyridin-3-yl]-6,6-dimethyl-4-oxo-4,5,6,7-tetrahydrofuro[3,2-c]pyridine-3-carboxamide]: 60.1 nM.
`CN1CCc2occ(C(=O)Nc3ccc(N4CCCCC4)cc3)c2C1=O` [Example 61, 5-methyl-4-oxo-N-[4-(piperidin-1-yl)phenyl]-4,5,6,7-tetrahydrofuro[3,2-c]pyridine-3-carboxamide] returned an IC50 of 195 nM. Against the preceding compound, the IC50 is about 3.2-fold higher.
In the case of `Cn1cc2cc(NC(=O)c3coc4c3C(=O)C(C)(CO)CC4)ccc2n1` (stereo not drawn) [Example 167, 5-(hydroxymethyl)-5-methyl-N-(2-methyl-2H-indazol-5-yl)-4-oxo-4,5,6,7-tetrahydro-1-benzofuran-3-carboxamide] it was 35.3 nM; in that of `CCOc1nc(N2CCN(C(C)=O)CC2)ccc1NC(=O)c1coc2c1C(=O)NC1(CCC1)C2` [Example 111, N-[6-(4-acetylpiperazin-1-yl)-2-ethoxypyridin-3-yl]-4′-oxo-4′,7′-dihydro-5′H-spiro[cyclobutane-1,6′-furo[3,2-c]pyridine]-3′-carboxamide], 3.9 nM; in that of `CCOc1nc(C(=O)O)ccc1NC(=O)c1coc2c1C(=O)N(CCOC)C(C)(C)C2` [Example 145, 6-ethoxy-5-({[5-(2-methoxyethyl)-6,6-dimethyl-4-oxo-4,5,6,7-tetrahydrofuro[3,2-c]pyridin-3-yl]carbonyl}amino)pyridine-2-carboxylic acid], 7.9 nM.
The same measure for `CN1CCN(c2ccc(NC(=O)c3coc4c3C(=O)NCC4)nc2)CC1` [Example 16, N-[5-(4-methylpiperazin-1-yl)pyridin-2-yl]-4-oxo-4,5,6,7-tetrahydrofuro[3,2-c]pyridine-3-carboxamide]: 279 nM.
In the case of `CN1CCN(CCn2ncc3cc(NC(=O)c4coc5c4C(=O)NCC5)ccc32)CC1` [Example 57, N-{1-[2-(4-methylpiperazin-1-yl)ethyl]-1H-indazol-5-yl}-4-oxo-4,5,6,7-tetrahydrofuro[3,2-c]pyridine-3-carboxamide] it was 34.6 nM; in that of `CC(O)Cn1cc2cc(NC(=O)c3coc4c3C(=O)NCC4)ccc2n1` (stereo not drawn) [Example 55, N-[2-(2-hydroxypropyl)-2H-indazol-5-yl]-4-oxo-4,5,6,7-tetrahydrofuro[3,2-c]pyridine-3-carboxamide], 20.8 nM.
For the compound `COc1cc(N2CCNCC2)ccc1NC(=O)c1coc2c1C(=O)NC(C)C2` (stereo not drawn) [Example 124, N-[2-methoxy-4-(piperazin-1-yl)phenyl]-6-methyl-4-oxo-4,5,6,7-tetrahydrofuro[3,2-c]pyridine-3-carboxamide], half-maximal inhibition (IC50) required 73.7 nM.
In the case of `Cc1cc(NC(=O)c2coc3c2C(=O)NCC3)no1` [Example 38, N-(5-methyl-1,2-oxazol-3-yl)-4-oxo-4,5,6,7-tetrahydrofuro[3,2-c]pyridine-3-carboxamide] it was 1720 nM; in that of `COc1cc(N2CCN(C(C)=O)CC2)ccc1NC(=O)c1coc2c1C(=O)C(C)(CN)CC2` (stereo not drawn) [Example 169, N-[4-(4-acetylpiperazin-1-yl)-2-methoxyphenyl]-5-(aminomethyl)-5-methyl-4-oxo-4,5,6,7-tetrahydro-1-benzofuran-3-carboxamide], 59.6 nM.
In the case of `COc1ccc(NC(=O)c2coc3c2C(=O)NCC3)c(OC)n1` [Example 35, N-(2,6-dimethoxypyridin-3-yl)-4-oxo-4,5,6,7-tetrahydrofuro[3,2-c]pyridine-3-carboxamide] it was 117 nM; in that of `Cc1n[nH]c2ccc(NC(=O)c3coc4c3C(=O)N(C)CC4)cc12` [Example 73, 5-methyl-N-(3-methyl-1H-indazol-5-yl)-4-oxo-4,5,6,7-tetrahydrofuro[3,2-c]pyridine-3-carboxamide], 1080 nM; in that of `Cn1ncc2cc(NC(=O)c3coc4c3C(=O)NCC4)ccc21` [Example 11, N-(1-methyl-1H-indazol-5-yl)-4-oxo-4,5,6,7-tetrahydrofuro[3,2-c]pyridine-3-carboxamide], 64 nM.
In the case of `CC1(C)CC(=O)c2c(C(=O)Nc3ccc(N4CCN(S(C)(=O)=O)CC4)cn3)coc2C1` [Example 155, 6,6-dimethyl-N-{5-[4-(methylsulfonyl)piperazin-1-yl]pyridin-2-yl}-4-oxo-4,5,6,7-tetrahydro-1-benzofuran-3-carboxamide] it was 54.8 nM.
Compound `COCCOc1nc(N2CCN(C(C)=O)CC2)ccc1NC(=O)c1coc2c1C(=O)NCC2` [Example 20, N-[6-(4-acetylpiperazin-1-yl)-2-(2-methoxyethoxyl)pyridin-3-yl]-4-oxo-4,5,6,7-tetrahydrofuro[3,2-c]pyridine-3-carboxamide] had an IC50 of 25.9 nM.
The same measure for `O=C(Nc1ccc2c(cnn2CCN2CCOCC2)c1)c1coc2c1C(=O)NCC2` [Example 56, N-{1-[2-(morpholin-4-yl)ethyl]-1H-indazol-5-yl}-4-oxo-4,5,6,7-tetrahydrofuro[3,2-c]pyridine-3-carboxamide]: 48.5 nM.
The same measure for `CCOc1nc(N2CCN(C(C)=O)CC2)ccc1NC(=O)c1coc2c1C(=O)N(CCOCc1ccccc1)CC2` [Example 8, N-[6-(4-acetylpiperazin-1-yl)-2-ethoxypyridin-3-yl]-5-[2-(benzyloxy)ethyl]-4-oxo-4,5,6,7-tetrahydrofuro[3,2-c]pyridine-3-carboxamide]: 69.5 nM.
For `CC(=O)N1CCN(c2ccc(NC(=O)c3coc4c3C(=O)NC(C)(C)C4)c(OC(C)C)n2)[C@@H](CO)C1` [Example 139, N-{6-[(2R)-4-acetyl-2-(hydroxymethyl)piperazin-1-yl]-2-isopropoxypyridin-3-yl}-6,6-dimethyl-4-oxo-4,5,6,7-tetrahydrofuro[3,2-c]pyridine-3-carboxamide], the IC50 is 2.4 nM. Compared with the last compound, the IC50 is about 29-fold lower.
The same measure for `CN1CCc2occ(C(=O)Nc3ccc4[nH]cnc4c3)c2C1=O` [Example 27, N-(1H-benzimidazol-5-yl)-5-methyl-4-oxo-4,5,6,7-tetrahydrofuro[3,2-c]pyridine-3-carboxamide]: 428 nM; for `CC(=O)N1CCN(c2ccc(NC(=O)c3coc4c3C(=O)NC(C)(C)C4)c(OC(C)C)n2)[C@H](CO)C1` [Example 134, N-{6-[(2S)-4-acetyl-2-(hydroxymethyl)piperazin-1-yl]-2-isopropoxypyridin-3-yl}-6,6-dimethyl-4-oxo-4,5,6,7-tetrahydrofuro[3,2-c]pyridine-3-carboxamide]: 3.9 nM; for `Cn1cc2cc(NC(=O)c3coc4c3C(=O)CC(C)(C(N)=O)C4)ccc2n1` (stereo not drawn) [Example 162, 6-methyl-N^3-(2-methyl-2H-indazol-5-yl)-4-oxo-4,5,6,7-tetrahydro-1-benzofuran-3,6-dicarboxamide]: 58 nM.
The same measure for `COc1cc(N2CCNCC2)ccc1NC(=O)c1coc2c1C(=O)CC(C)(C)C2` [Example 157, N-[2-methoxy-4-(piperazin-1-yl)phenyl]-6,6-dimethyl-4-oxo-4,5,6,7-tetrahydro-1-benzofuran-3-carboxamide]: 6.4 nM.
The same measure for `CN1CCN(c2ccc(NC(=O)c3coc4c3C(=O)N(C)CC4)cc2)CC1` [Example 22, 5-methyl-N-[4-(4-methylpiperazin-1-yl)phenyl]-4-oxo-4,5,6,7-tetrahydrofuro[3,2-c]pyridine-3-carboxamide]: 200 nM; for `CCOc1nc(N2CCN(C(C)=O)CC2)ccc1NC(=O)c1coc2c1C(=O)N(C[C@H](C)OC(C)=O)CC2` [Example 96, (2S)-1-[3-{[6-(4-acetylpiperazin-1-yl)-2-ethoxypyridin-3-yl]carbamoyl}-4-oxo-6,7-dihydrofuro[3,2-c]pyridin-5(4H)-yl]propan-2-yl acetate]: 6.7 nM.
Compound `COC(=O)C1(C)CC(=O)c2c(C(=O)Nc3ccc4nn(C)cc4c3)coc2C1` (stereo not drawn) [Example 163, methyl 6-methyl-3-[(2-methyl-2H-indazol-5-yl)carbamoyl]-4-oxo-4,5,6,7-tetrahydro-1-benzofuran-6-carboxylate] displayed an IC50 of 156 nM.
